Experimental findings from BindingDB's records for doi:10.1016/s0968-0896(01)00282-6 (Purdue University, 2002) are described below.

The target in this experiment is T1, Gag-Pol polyprotein [588-1027]/[588-1147] (Human immunodeficiency virus 1, UniProt P04585).
T1 construct: 588-1027; 588-1147
Nature of the experiment: HIV-1 RT Assay. The following applies: pH 7.9.
`COC(=O)CCC/C=C(/c1cc(C)c(OC)c(C(=O)OC)c1)c1cc(Cl)c(OC)c(C(=O)OC)c1` [Alkenyldiarylmethane (ADAM) 4b]: the IC50 – broadly, the concentration at which inhibition is half-maximal – is 0.516 µM. Under `COC(=O)CCC/C=C(/c1ccc(OC)c(C(=O)OC)c1)c1cc(Cl)c(OC)c(C(=O)OC)c1` [Alkenyldiarylmethane (ADAM) 5b] stands 0.587 µM; under `COC(=O)CCCC=C(c1ccc(OC)c(Cl)c1)c1ccc(OC)c(Cl)c1` [Alkenyldiarylmethane (ADAM) 9b], 100 µM; under `COC(=O)CCC/C=C\c1cc(C)c(OC)c(C(=O)OC)c1` [Alkenyldiarylmethane (ADAM) 10b], 88.2 µM. The figure for `COC(=O)CCCCC(=O)c1cc(C)c(OC)c(C(=O)OC)c1` [Methyl 6-[4-methoxy-5-(methoxycarbonyl)-3-methylphenyl]-6-oxohexanoate] is 100 µM; for `COC(=O)CCCCCc1cc(C)c(OC)c(C(=O)OC)c1` [Methyl 6-[4-methoxy-5-(methoxycarbonyl)-3-methylphenyl]hexanoate] it is 1.75 µM. `COC(=O)CCC/C=C(/c1ccc(OC)c(OC)c1)c1cc(C)c(OC)c(C(=O)OC)c1` [Methyl (5Z)-6-(3,4-dimethoxyphenyl)-6-[4-methoxy-3-(methoxycarbonyl)-5-methylphenyl]hex-5-enoate] yielded an IC50 of 0.074 µM.

Turning to `COC(=O)CCCC#Cc1cc(C)c(OC)c(C(=O)OC)c1` [methyl 2-methoxy-5-(6-methoxy-6-oxohex-1-yn-1-yl)-3-methylbenzoate], inhibition was half-maximal at 100 µM (IC50). Against the preceding molecule, the IC50 is about 1400-fold higher. The molecule `COC(=O)CCC/C=C/c1cc(C)c(OC)c(C(=O)OC)c1` [methyl 2-methoxy-5-[(1E)-6-methoxy-6-oxohex-1-en-1-yl]-3-methylbenzoate] yielded an IC50 of 100 µM. `COC(=O)CCCC=C(c1ccc(OC)c(C(=O)OC)c1)c1ccc(OC)c(C(=O)OC)c1` [methyl 2-methoxy-5-{6-methoxy-1-[4-methoxy-3-(methoxycarbonyl)phenyl]-6-oxohex-1-en-1-yl}benzoate] had an IC50 of 0.504 µM.

Turning to `COC(=O)CCC/C(=C\c1ccc(OC)c(Cl)c1)c1ccc(OC)c(Cl)c1` [methyl (5E)-5,6-bis(3-chloro-4-methoxyphenyl)hex-5-enoate], the IC50 was found to be 100 µM. The molecule `COC(=O)CCC/C=C(/c1ccc(OC)c(OC)c1)c1cnccn1` [methyl (5Z)-6-(3,4-dimethoxyphenyl)-6-(pyrazin-2-yl)hex-5-enoate] showed an IC50 of 100 µM.
